Consider two compounds from patent US5264621A, “Anti-virus agent” (Sanyo-Kokusaku Pulp Co., Ltd., priority 1991, dated 1993).

Structures are written as SMILES. Values after ≈ are worked out from the molar mass of the structure shown. Where two headings read alike, the source gives them in different places.

In series [1] the test system is MOLT-4 cells infected with HTLV-IIIB. Nature of the series: Inhibition of the formation of giant cells. It counts as cell-based. Conditions: co-culture of HTLV-IIIB infected and non-infected MOLT-4 cells, 24 hours, counted under microscope. Here is the method:
3. Inhibition of the formation of giant cells
MOLT-4 cells infected with HTLV-IIIB and MOLT-4 cells without infection were cultured each in same number (5×10^4) in medium with 3,3'-[1,10-decanediyl-bis(carbonylamino)]-bis(1,5-naphthalenedisulfonic acid) added and, after cultured for 24 hours, the number of giant cells formed was counted under microscope.

In series [2] the test system is HIV-1HE. The series is described as follows: Inhibitory effect on the destruction of T-cells due to HIV (MTT), HIV-1HE. It counts as cell-based, HIV (human immunodeficiency virus). Conditions: MT-4 cells. Here is the method:
(§1) 1. Inhibitory effect on the destruction of T-cells due to HIV
(§2) Various concentrations of 3,3'-[1,10-decanediyl-bis(carbonylamino)]-bis(1,5-naphthalenedisulfonc acid) were added to each medium suspended 1×10^5 cells/ml of MT-4 cells, which was infected with HTLV-IIIB or HIV-1HE. Infection was made at an infection number of MOI=0.02. Then, after cultured for 4 days at 37° C., the number of surviving cells was quantitatively determined by dyeing surviving cells with MTT dye. Moreover, at the same time, by dyeing also non-infected cells with MTT dye, the toxicity of sample to cells was calculated.

The nature of series [3]: Toxicity of sample to non-infected cells (MTT). It counts as cell-based. The note with it: human, mt-4 cells, non-infected MT-4 cells, read-out: CC50 = 50% toxic concentration. Here is the method: as §2
In series [4] the test system is HTLV-IIIB. Nature of the series: Inhibitory effect on the destruction of T-cells due to HIV (MTT), HTLV-IIIB. It counts as cell-based, HIV (human immunodeficiency virus). Conditions: MT-4 cells. Here is the method: as §1, §2
The test system of series [5] is bone marrow cells. Conditions: background statement; cited from earlier work.
The mark [6] stands for this setting: Human immunodeficiency virus 1, MT4, 96 h, MOI=0.02, 4 days at 37° C., MTT, read-out: EC50 = Effective concentration for inhibition of 50% cells.

For the compound `O=C(CCCCCCCCCCC(=O)Nc1cc(S(=O)(=O)O)c2cccc(S(=O)(=O)O)c2c1)Nc1cc(S(=O)(=O)O)c2cccc(S(=O)(=O)O)c2c1` [3,3'-[1,10-decanediyl-bis(carbonylamino)]-bis(1,5-naphthalenedisulfonic acid)], the “inhibitory activity against formation of giant cells” value in series [1] is on record as “recognized”. In addition, the EC50 in series [2] (setting [6]) turned out to be 40.7 µg/mL (≈ 50.8 µM); in series [4] (setting [6]), 46 µg/mL (≈ 57.4 µM). Moreover, the entries for the “T.I. = Selective toxicity (CC50 /EC50)” value in series [2] and in series [4] were 12.3 and 8.3, respectively. Further, the figures for the CC50 at 96 h in series [3] (HIV-1HE system (No. 2)) and in series [3] (HTLV-IIIB system (No. 1)) were 500 µg/mL (≈ 624 µM) and 383 µg/mL (≈ 478 µM), respectively.
For the compound `Cc1cn([C@H]2C[C@H](N=[N+]=[N-])[C@@H](CO)O2)c(=O)[nH]c1=O` [AZT, azido thymidine], the side effects result in series [5] is given as “inhibition of the growth of bone marrow cells”.
